Measured values as given in US20240285555A1, “COMPOSITIONS FOR THE TREATMENT OF COPPER DEFICIENCY AND METHODS OF USE” (priority 2018, published 2024).

Experiments:
[1] = system: control MEFs; assay: COX1 levels in control mouse embryonic fibroblasts (toxicity); assay type: cell-based; conditions: higher doses of ES
Experimental: Mammalian Cell Culture. The human control MCH46 and SCO2 patient fibroblasts as well as the rat H9c2 control and Ctr1^−/− cardiomyocytes were cultured in high glucose Dulbecco's modified Eagle's medium (DMEM) supplemented with 10% fetal bovine serum (Sigma) and 1 mM sodium pyruvate (Life Technologies). The mouse embryonic fibroblasts were cultured in DMEM 10% FBS, 1 mM sodium pyruvate, 1× minimum essential medium non-essential amino acids (MEM NEAA; Life Technologies 11140), 50 μg/mL uridine, and 1× Pen Strep Glutamine (Life Technologies 10378). All cell lines were cultured under 5% CO2 at 37° C. and were treated with indicated concentrations of ES for 3-6 days before harvesting. Whole cell protein was extracted in lysis buffer (BP-115, Boston BioProducts) supplemented with protease inhibitor cocktail (Roche Diagnostics) and the protein concentrations were determined by BCA assay (Thermo Scientific).
Immunoblotting and In-gel Activities. Sodium dodecyl sulfate polyacrylamide gel electrophoresis (SDS-PAGE) and Blue Native PAGE (BN-PAGE) were performed to separate denatured and native protein complexes, respectively. For SDS-PAGE, mitochondrial lysate ([…]) was separated on NuPAGE 4-12% Bis-Tris gels (Life Technologies, Carlsbad, CA). For BN-PAGE, yeast mitochondria were solubilized in buffer containing 1% digitonin (Life Technologies) by incubating for 15 min at 4° C. […]

[2] = system: immortalized control (MCH46) and SCO2 patient fibroblasts, primary human skin fibroblasts (MW28); assay: Cell viability of human fibroblasts (total cellular ATP, Cell-Titre GLo); assay type: cell-based
Experimental: FIGS. 5A and 5B illustrate cell viability of immortalized and primary human fibroblasts cell lines treated with increasing concentrations of elesclomol. […] Cell viability was measured by quantifying total cellular ATP levels by Cell-Titre GLo assay (Promega). Data are expressed as mean±SD (n=3).
ES Supplementation Rescues Levels of CcO Subunits in Mammalian Cell Lines with Genetic Defects in Copper Metabolism. To expand upon the findings in yeast and to test the efficacy of ES in mammalian cell culture models of copper deficiency, a Ctr1 knockout rat H9c2 cardiomyocyte cell line was constructed. […] As expected, the loss of Ctr1 led to a ˜4-fold decrease in the levels of intracellular copper (FIG. 4A) and a concomitant reduction in the levels of the CcO subunitCOX1 and superoxide dismutase, SOD1 (FIG. 4B). This validated Ctr1^−/− cell line was used to test the efficacy of ES in rescuing COX1, a copper-containing subunit of CcO and SOD1, superoxide dismutase, another copper-containing enzyme SOD1. […] Finally, the efficacy of ES in rescuing CcO defects in SCO2 patient fibroblasts that were previously shown to have a COX2 deficiency was tested.

[3] = system: mottled-brindled (mo-br) mouse; assay: Survival of Menkes (mo-br) mice after subcutaneous injections; assay type: in vivo
Experimental: Kaplan-Meier Survival of mice after subcutaneous injections of ES-Cu(II) on postnatal days 7 and 10. Log-Rank statistical analysis was conducted to assess significance of survival among mo-br mice cohorts. Mo-br mice treated with 3.625 mg/kg/dose.
FIG. 8 illustrates mean body weight gain of mice after subcutaneous injections on postnatal days 7 and 10. Cohorts and number of mice/cohort are designated as follows: WT vehicle (n=13), WT Cu(II)-ES (n=12), mo-br vehicle (n=9), mo-br Cu(II)-ES (n=27), mo-br Cu(II)-2His (n=6), and mo-br ES (n=6). Growth curves are reported as the mean of each cohort±SD measured weekly.
To evaluate the potential of Cu(II)-ES in a mouse model of human copper deficiency disorder, the well-characterized mottled-brindled (mo-br) mouse model (C57BL/6-Atp7a^mo-br/J, Jackson Laboratory Stock #002566) that closely mimics the clinical and biochemical phenotypes of Menkes disease was chosen. Like in humans, these mice are characterized by mutation in ATP7a, which is an X-linked gene and therefore its mutation only affects males.

SMILES: CN(NC(=O)CC(=O)NN(C)C(=S)c1ccccc1)C(=S)c1ccccc1 [ES, elesclomol]
- ES toxicity reflected in COX1 levels [1]: reduced COX1 levels
- toxicity in immortalized cell lines compared to primary cultures [2]: much more pronounced toxicity in immortalized cell lines
- concentration at which ES toxicity occurs relative to the dose that rescued COX2 levels ([2]; immortalized fibroblasts, 36 hours): 20 ×
- mean survival time ([3]; mouse, in vivo): 17.0 ± 0.9 days
- weekly time point by which all mice of the cohort had expired ([3]; subcutaneous, postnatal days 7 and 10): ≤ 2 week
